Reference: article PMC9839507 (ACS applied materials & interfaces, 2022)

Tested on: orthotopic U87MG-luc glioma
Format: in vivo, BALB/c nude mice

Structure (SMILES): CC1(C)C(/C=C/C=C/C=C/C=C2\N(CCCCS(=O)(=O)O)c3ccc4ccccc4c3C2(C)C)=[N+](CCCCS(=O)(=O)[O-])c2ccc3ccccc3c21 [ICG, indocyanine green, reference compound]
- detection in orthotopic glioma by fluorescent imaging (2 h after i.v. injection, 30 nmol, n = 3): detected
- ICG signal at the tumor site by tissue fluorescence imaging (Figure S9): slightly detectable
- ex vivo fluorescent signals in tumors (brains harvested at 72 h postinjection): undetectable
